# Source: patent US7879872B2, “Compositions comprising multiple bioactive agents, and methods of using the same” (Affinium Pharmaceuticals, Inc., priority 2003, dated 2011)
# Tests used:
# [1] = system: S. mitis SMI_116; test: checkerboard combination, clinical bacterial isolates (FIC); assay type: cell-based
# Procedure: (§1) The combination experiments were performed and the results were interpreted using the checkerboard method as described in Eliopoulous, G. M., and R. C. Moellering, 1996, Antimicrobial combinations, p. 330-396, In V. Lorian (ed.), Antibiotics in laboratory medicine, 4th ed., The Williams & Wilkins Co., Baltimore, Md., in 96-well microtiter plates. Compound A was serially diluted along the x-axis of the test plate to a final volume of 50 μl, and compound B was serially diluted in a separate transfer plate. Dilutions in both plates were made in CAMHB (cation-adjusted Mueller Hinton broth) for Staphylococci and in CAMHB+5% sheep blood for Streptococci. Aliquots (50 μl) of Compound B were transferred to the test plate along the y-axis thereby achieving a checkerboard matrix of antimicrobial combinations (100 μl total volume) as in FIG. 4. The first column and last row (shaded in FIG. 4) contained only compound B or compound A, respectively. Plates were then inoculated with 10 μl of the test microorganism and MICs were determined according to NCCLS guidelines (see National Committee for Clinical Laboratory Standards, 2000, Methods for Dilution Antimicrobial Susceptibility Tests for Bacteria That Grow Aerobically—Fifth Edition, Approved Standard M7-A5, NCCLS, Wayne, Pa., USA.)
# (§2) Data analysis was performed as follows and according to Eliopoulous, G. M., and R. C. Moellering, 1996, Antimicrobial combinations, p. 330-396, In V. Lorian (ed.), Antibiotics in laboratory medicine, 4th ed., The Williams & Wilkins Co., Baltimore, Md. First individual FIC values for each combination in a plate were calculated: FIC(Fractional Inhibitory Concentration)=FICA+FICB • FICA=MICA+B/MICA i.e. the MIC of combination of compound A+compound B divided by the MIC of compound A alone. • FICB=MICB+A/MICB i.e. the MIC of combination of compound B+compound A divided by the MIC of compound B alone.
# (§3) FIC values were calculated only for combinations that enabled determination of a true MIC (e.g. not > or <=values). FIC indexes were then calculated as the average of individual FIC values for each combination plate.
# [2] = system: S. aureus SA_29213; test: as above; assay type: cell-based; settings: S. aureus SA_29213 (MSSA)
# Procedure: as §1, §2, §3
# [3] = system: S. pneumoniae SP_22425; test: as above; assay type: cell-based; settings: S. pneumoniae SP_22425 (PenR EryR ClinR)
# Procedure: as §1, §2, §3
# [4] = system: S. aureus SA_A7080336; test: as above; assay type: cell-based; settings: S. aureus SA_A7080336 (MRSA)
# Procedure: as §1, §2, §3
# [5] = system: H. influenzae HI_49247; test: as above; assay type: cell-based; settings: compound G with Azithromycin
# Procedure: as §1, §2, §3
# [6] = system: S. aureus SA_A6250596; test: as above; assay type: cell-based; settings: S. aureus SA_A6250596 (MRSA-MDR)
# Procedure: as §1, §2, §3
# [7] = system: P. aeruginosa PA_27853; test: as above; assay type: cell-based
# Procedure: as §1, §2, §3
# [8] = system: S. pneumoniae SP_22257; test: as above; assay type: cell-based; settings: compound G with Azithromycin; S. pneumoniae SP_22257 (PenR EryS ClinS)
# Procedure: as §1, §2, §3
# [9] = system: E. faecalis EF_A6221420; test: as above; assay type: cell-based; settings: E. faecalis EF_A6221420 (VRE)
# Procedure: as §1, §2, §3
# [10] = system: S. epidermidis SE_A7100750; test: as above; assay type: cell-based; settings: S. epidermidis SE_A7100750 (MRSE CipR)
# Procedure: as §1, §2, §3
# [11] = system: E. coli EC_25922; test: as above; assay type: cell-based
# Procedure: as §1, §2, §3
# [12] = system: S. aureus 29213; test: checkerboard combination study (FIC index); assay type: cell-based, Staphylococcus aureus; parameters: key: FIC index = average of FICA+FICB (MIC combo/MIC alone)
# Procedure: as §1, §2, §3
# [13] = system: S. aureus 43300; test: checkerboard combination study (FIC index); assay type: cell-based, Staphylococcus aureus; parameters: key: FIC index = average of FICA+FICB (MIC combo/MIC alone); settings: S. aureus 43300 (MRSA)
# Procedure: as §1, §2, §3
# [14] = system: major pathogenic species tested; test: Checkerboard combination studies of compound G and commercial antibiotics (FIG. 7); assay type: cell-based; settings: all major pathogenic species tested
# Procedure: Checkerboard experiments were performed and analyzed according to standard procedures as outlined below.
# [15] = system: S. pneumoniae 22425, a penicillin and macrolide resistant clinical isolate; test: Combination time-kill studies; assay type: cell-based; settings: compound alone at both 0.03 μg/ml and 1 μg/ml; S. pneumoniae 22425; FIG. 8
# Procedure: Combination time-kill studies were performed as follows. Bacterial inocula were prepared as for MIC determination according to CLSI guidelines. Log phase cells (˜10^6 CFU/ml) were inoculated into 24 well plates and incubated with the indicated concentrations of compound G and commercial antibiotics for 24 hours at 35° C. At indicated time points samples were removed for determination of viable CFU counts. Results are plotted as log CFU/ml vs. time.
smiles,measurement,setting,value
"Cc1c(CN(C)C(=O)/C=C/c2cnc3c(c2)CCC(=O)N3)oc2ccccc12 [Compound G, (E)-N-methyl-N-(3-methylbenzofuran-2-ylmethyl)-3-(7-oxo-5,6,7,8-tetrahydro-1,8-naphthyridin-3-yl)acrylamide]",FIC,[1]; compound G with Ceftriaxone,<2
same,FIC,[1]; compound G with Gatifloxacin,<2
same,FIC,[1]; compound G with Meropenem,<2
same,FIC,[1]; compound G with Penicillin,<2
same,FIC,[2]; compound G with Azithromycin,0.6
same,FIC,[2]; compound G with Ceftriaxone,<2
same,FIC,[2]; compound G with Cefuroxime,<2
same,FIC,[2]; compound G with Meropenem,1
same,FIC,[2]; compound G with Penicillin,0.7
same,FIC,[3]; compound G with Ceftriaxone,<2
same,FIC,[3]; compound G with Cefuroxime,<2
same,FIC,[3]; compound G with Gatifloxacin,<2
same,FIC,[3]; compound G with Levofloxacin,<2
same,FIC,[3]; compound G with Meropenem,<2
same,FIC,[4]; compound G with Gatifloxacin,0.6
same,FIC,[4]; compound G with Levofloxacin,0.6
same,FIC,[5],<2
same,FIC,[6]; compound G with Azithromycin,<2
same,FIC,[6]; compound G with Ceftriaxone,<2
same,FIC,[6]; compound G with Cefuroxime,<2
same,FIC,[6]; compound G with Gatifloxacin,1
same,FIC,[6]; compound G with Levofloxacin,1
same,FIC,[6]; compound G with Meropenem,<2
same,FIC,[6]; compound G with Penicillin,<2
same,FIC,[7]; compound G with Gatifloxacin,<2
same,FIC,[7]; compound G with Meropenem,<2
same,FIC,[8],<2
same,FIC,[9]; compound G with Ceftriaxone,<2
same,FIC,[9]; compound G with Gatifloxacin,<2
same,FIC,[9]; compound G with Levofloxacin,<2
same,FIC,[9]; compound G with Meropenem,<2
same,FIC,[10]; compound G with Ceftriaxone,1
same,FIC,[10]; compound G with Gatifloxacin,<2
same,FIC,[10]; compound G with Meropenem,0.6
same,FIC,[11]; compound G with Ceftriaxone,0.7
same,FIC,[11]; compound G with Gatifloxacin,<2
same,FIC,[11]; compound G with Meropenem,0.6
same,FIC Index,[12]; with Cefuroxime,0.8
same,FIC Index,[12]; with Cloxacillin,2
same,FIC Index,[12]; with Erythromycin,2
same,FIC Index,[12]; with Gentamcin,0.3
same,FIC Index,[12]; with Levofloxacin,1
same,FIC Index,[12]; with Linezolid,0.5
same,FIC Index,[12]; with Nafcillin,0.8
same,FIC Index,[12]; with Rifampicin,0.8
same,FIC Index,[12]; with Tetracycline,2
same,FIC Index,[12]; with Vancomycin,1
same,FIC Index,[13]; with Cefuroxime,0.5
same,FIC Index,[13]; with Cloxacillin,0.75
same,FIC Index,[13]; with Gentamcin,0.4
same,FIC Index,[13]; with Levofloxacin,2
same,FIC Index,[13]; with Linezolid,0.5
same,FIC Index,[13]; with Nafcillin,0.7
same,FIC Index,[13]; with Rifampicin,0.75
same,FIC Index,[13]; with Tetracycline,1
same,FIC Index,[13]; with Vancomycin,0.75
same,antagonism in compound G combinations,[14],did not show antagonism
same,activity against S. pneumoniae (time-kill),[15],no activity
